Several values for one entry are separate records, joined by “and”; a condition that tells them apart may be missing. Identical values can stand only once.
Assays:
Experiment in all cases: KINOMEscan competition binding
Conditions in all cases: compound 10.0 µM
ADCK4 (human) = ADCK4 (human) (UniProt Q96D53)
CAMK1G (human) = CAMK1G (human) (UniProt Q96NX5)
CDK15 (human) = CDK15 (human) (UniProt Q96Q40)
CDK8 (human) = CDK8 (human) (UniProt P49336)
CDK9 (human) = CDK9 (human) (UniProt P50750)
CHEK2 (human) = CHEK2 (human) (UniProt O96017)
CLK4 (human) = CLK4 (human) (UniProt Q9HAZ1)
DAPK3 (human) = DAPK3 (human) (UniProt O43293)
FGR (human) = FGR (human) (UniProt P09769)
FLT3 (human) = FLT3 (human) (UniProt P36888)
[1] = test system: FLT3 (human), P36888 [N841I]
LCK (human) = LCK (human) (UniProt P06239)
MAP2K1 (human) = MAP2K1 (human) (UniProt Q02750)
MAP2K4 (human) = MAP2K4 (human) (UniProt P45985)
MAP4K3 (human) = MAP4K3 (human) (UniProt Q8IVH8)
MAPK4 (human) = MAPK4 (human) (UniProt P31152)
MAPK7 (human) = MAPK7 (human) (UniProt Q13164)
MKNK1 (human) = MKNK1 (human) (UniProt Q9BUB5)
MYLK (human) = MYLK (human) (UniProt Q15746)
NEK5 (human) = NEK5 (human) (UniProt Q6P3R8)
NTRK1 (human) = NTRK1 (human) (UniProt P04629)
PDGFRA (human) = PDGFRA (human) (UniProt P16234)
PHKG2 (human) = PHKG2 (human) (UniProt P15735)
PIM2 (human) = PIM2 (human) (UniProt Q9P1W9)
PIP5K1A (human) = PIP5K1A (human) (UniProt Q99755)
PKMYT1 (human) = PKMYT1 (human) (UniProt Q99640)
PLK1 (human) = PLK1 (human) (UniProt P53350)
PRKD2 (human) = PRKD2 (human) (UniProt Q9BZL6)
PRKG1 (human) = PRKG1 (human) (UniProt Q13976)
RET (human) = RET (human) (UniProt P07949)
SRMS (human) = SRMS (human) (UniProt Q9H3Y6)
STK16 (human) = STK16 (human) (UniProt O75716)
STK32B (human) = STK32B (human) (UniProt Q9NY57)
STK32C (human) = STK32C (human) (UniProt Q86UX6)
TEK (human) = TEK (human) (UniProt Q02763)
TESK1 (human) = TESK1 (human) (UniProt Q15569)
TGFBR1 (human) = TGFBR1 (human) (UniProt P36897)
TLK2 (human) = TLK2 (human) (UniProt Q86UE8)
TXK (human) = TXK (human) (UniProt P42681)
BMPR1B (human) = BMPR1B (human) (UniProt O00238)
FER (human) = FER (human) (UniProt P16591)

Chain of NEK5 (human) (Q6P3R8 whole entry, looked up): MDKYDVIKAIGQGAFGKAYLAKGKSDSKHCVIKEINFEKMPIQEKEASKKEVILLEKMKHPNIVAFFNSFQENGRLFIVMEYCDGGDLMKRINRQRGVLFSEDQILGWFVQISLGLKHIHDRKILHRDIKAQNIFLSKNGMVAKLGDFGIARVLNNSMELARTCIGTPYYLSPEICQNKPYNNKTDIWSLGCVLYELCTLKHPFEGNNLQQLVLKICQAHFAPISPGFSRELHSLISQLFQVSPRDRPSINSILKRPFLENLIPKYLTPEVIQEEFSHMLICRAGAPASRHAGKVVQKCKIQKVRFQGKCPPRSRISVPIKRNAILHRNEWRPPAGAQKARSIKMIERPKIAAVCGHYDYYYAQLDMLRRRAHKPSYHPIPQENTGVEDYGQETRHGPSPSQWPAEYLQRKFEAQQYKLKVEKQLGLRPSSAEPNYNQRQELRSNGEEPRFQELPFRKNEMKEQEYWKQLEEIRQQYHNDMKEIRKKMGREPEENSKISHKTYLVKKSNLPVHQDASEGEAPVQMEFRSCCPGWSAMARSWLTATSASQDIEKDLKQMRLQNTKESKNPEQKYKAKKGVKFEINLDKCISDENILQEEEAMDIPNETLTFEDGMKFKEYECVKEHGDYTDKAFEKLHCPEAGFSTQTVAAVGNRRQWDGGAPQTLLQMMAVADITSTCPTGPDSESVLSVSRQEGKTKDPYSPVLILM
Chain of NTRK1 (human) (P04629 whole entry, looked up): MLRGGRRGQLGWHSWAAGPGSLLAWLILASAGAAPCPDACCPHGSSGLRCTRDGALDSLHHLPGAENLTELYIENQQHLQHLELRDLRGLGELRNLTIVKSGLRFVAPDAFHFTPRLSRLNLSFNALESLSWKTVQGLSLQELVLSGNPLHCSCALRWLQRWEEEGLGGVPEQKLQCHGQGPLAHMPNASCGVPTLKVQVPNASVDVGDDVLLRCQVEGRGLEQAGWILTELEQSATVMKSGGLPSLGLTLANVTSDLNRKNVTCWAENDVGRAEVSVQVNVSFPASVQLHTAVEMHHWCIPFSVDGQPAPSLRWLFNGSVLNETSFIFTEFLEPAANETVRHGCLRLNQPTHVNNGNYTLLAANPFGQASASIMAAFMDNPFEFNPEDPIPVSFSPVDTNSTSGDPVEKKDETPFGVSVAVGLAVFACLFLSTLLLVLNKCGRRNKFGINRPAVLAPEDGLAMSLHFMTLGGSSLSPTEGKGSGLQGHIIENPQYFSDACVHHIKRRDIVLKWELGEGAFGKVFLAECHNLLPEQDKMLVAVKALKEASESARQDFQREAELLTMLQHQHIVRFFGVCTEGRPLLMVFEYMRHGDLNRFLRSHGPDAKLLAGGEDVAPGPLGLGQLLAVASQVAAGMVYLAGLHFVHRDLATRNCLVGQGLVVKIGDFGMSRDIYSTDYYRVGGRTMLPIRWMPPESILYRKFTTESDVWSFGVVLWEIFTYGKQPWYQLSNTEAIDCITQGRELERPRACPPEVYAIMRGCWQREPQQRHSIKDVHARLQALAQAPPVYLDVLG
Chain of PIM2 (human) (Q9P1W9 whole entry, looked up): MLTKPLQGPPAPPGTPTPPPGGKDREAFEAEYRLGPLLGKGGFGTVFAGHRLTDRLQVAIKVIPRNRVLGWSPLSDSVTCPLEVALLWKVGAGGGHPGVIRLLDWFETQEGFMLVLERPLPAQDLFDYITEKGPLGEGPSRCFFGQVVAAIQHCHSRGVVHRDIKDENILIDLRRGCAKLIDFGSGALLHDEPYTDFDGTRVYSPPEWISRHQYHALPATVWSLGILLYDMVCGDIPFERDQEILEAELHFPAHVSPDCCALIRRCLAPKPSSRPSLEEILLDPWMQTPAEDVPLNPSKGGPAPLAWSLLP
Chain of MKNK1 (human) (Q9BUB5 whole entry, looked up): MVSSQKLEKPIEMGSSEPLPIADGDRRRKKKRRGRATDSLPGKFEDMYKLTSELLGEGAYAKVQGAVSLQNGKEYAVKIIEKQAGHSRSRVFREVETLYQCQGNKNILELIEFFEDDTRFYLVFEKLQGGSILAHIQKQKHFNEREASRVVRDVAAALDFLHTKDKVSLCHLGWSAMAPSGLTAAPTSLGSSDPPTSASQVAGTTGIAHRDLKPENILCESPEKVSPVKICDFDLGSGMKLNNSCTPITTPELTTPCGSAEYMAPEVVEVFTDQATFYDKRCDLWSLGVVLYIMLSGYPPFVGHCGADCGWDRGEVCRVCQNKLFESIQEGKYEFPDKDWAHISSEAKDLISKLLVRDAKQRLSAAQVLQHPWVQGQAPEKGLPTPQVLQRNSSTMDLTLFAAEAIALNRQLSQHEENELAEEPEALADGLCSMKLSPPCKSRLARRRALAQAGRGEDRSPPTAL
Chain of MAP2K4 (human) (P45985 whole entry, looked up): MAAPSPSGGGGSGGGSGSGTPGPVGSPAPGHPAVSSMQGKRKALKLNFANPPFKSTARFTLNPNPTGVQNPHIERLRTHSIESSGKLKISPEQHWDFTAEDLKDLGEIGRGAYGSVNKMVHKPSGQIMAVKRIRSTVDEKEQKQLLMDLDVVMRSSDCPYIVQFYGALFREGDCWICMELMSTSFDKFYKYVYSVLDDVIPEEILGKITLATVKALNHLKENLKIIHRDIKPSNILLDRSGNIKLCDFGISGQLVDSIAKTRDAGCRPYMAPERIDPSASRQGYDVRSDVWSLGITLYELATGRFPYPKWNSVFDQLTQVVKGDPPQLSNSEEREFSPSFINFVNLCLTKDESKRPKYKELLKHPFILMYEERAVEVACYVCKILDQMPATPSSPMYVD
Chain of TXK (human) (P42681 whole entry, looked up): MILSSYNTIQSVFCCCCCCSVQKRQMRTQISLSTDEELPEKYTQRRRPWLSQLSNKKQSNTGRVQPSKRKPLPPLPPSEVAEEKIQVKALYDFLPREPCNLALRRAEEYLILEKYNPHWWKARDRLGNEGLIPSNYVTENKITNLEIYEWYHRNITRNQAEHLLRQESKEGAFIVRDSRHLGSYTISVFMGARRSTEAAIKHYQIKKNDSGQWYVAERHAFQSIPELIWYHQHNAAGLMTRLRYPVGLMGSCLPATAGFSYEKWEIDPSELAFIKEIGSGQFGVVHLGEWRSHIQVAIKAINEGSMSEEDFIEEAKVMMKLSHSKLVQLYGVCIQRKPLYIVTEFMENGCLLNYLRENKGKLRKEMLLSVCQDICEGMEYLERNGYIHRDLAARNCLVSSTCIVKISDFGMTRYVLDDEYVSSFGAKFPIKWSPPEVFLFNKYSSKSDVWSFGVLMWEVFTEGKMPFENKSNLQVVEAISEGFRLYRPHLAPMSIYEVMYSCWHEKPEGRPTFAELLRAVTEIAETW
Chain of PRKD2 (human) (Q9BZL6 whole entry, looked up): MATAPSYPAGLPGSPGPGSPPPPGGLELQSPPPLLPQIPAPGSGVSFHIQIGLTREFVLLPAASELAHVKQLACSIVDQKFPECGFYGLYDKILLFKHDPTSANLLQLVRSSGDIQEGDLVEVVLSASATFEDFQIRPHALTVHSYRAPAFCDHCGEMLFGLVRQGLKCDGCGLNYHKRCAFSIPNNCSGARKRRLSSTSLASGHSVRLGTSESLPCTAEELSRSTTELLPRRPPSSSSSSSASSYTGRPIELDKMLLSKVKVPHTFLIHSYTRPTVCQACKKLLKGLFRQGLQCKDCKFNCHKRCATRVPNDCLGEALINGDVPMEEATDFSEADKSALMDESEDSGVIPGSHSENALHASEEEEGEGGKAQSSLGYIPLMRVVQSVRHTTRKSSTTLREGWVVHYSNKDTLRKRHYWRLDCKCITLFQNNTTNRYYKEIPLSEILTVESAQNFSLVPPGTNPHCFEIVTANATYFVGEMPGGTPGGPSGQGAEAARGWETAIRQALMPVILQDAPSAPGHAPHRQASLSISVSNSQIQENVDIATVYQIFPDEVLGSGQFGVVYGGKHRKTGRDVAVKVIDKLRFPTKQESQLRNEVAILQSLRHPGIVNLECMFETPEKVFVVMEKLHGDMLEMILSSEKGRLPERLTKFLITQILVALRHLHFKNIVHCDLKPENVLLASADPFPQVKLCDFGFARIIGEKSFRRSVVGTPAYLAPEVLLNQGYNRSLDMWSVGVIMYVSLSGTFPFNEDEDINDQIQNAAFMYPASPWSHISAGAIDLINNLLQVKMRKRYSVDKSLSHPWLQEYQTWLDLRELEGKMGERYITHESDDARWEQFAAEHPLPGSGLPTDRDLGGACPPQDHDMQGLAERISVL
Chain of PRKG1 (human) (Q13976 whole entry, looked up): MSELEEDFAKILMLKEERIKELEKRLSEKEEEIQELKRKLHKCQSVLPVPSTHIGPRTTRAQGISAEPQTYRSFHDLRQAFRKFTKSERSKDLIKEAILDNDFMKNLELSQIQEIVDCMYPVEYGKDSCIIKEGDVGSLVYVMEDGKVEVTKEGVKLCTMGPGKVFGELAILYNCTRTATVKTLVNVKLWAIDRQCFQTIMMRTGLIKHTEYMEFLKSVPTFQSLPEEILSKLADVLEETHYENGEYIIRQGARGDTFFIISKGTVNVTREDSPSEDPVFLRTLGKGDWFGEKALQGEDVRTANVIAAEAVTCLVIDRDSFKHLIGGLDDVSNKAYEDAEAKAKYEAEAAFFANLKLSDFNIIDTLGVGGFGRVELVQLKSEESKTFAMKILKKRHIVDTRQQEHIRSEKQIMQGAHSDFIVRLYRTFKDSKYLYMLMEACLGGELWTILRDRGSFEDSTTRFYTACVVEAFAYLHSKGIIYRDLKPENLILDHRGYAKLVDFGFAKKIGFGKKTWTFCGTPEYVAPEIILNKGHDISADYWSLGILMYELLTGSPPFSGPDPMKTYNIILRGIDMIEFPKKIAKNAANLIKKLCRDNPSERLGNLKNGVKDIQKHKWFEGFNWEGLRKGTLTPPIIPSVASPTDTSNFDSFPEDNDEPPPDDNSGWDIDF

Row | Structure (SMILES) | kinase still bound, per cent of control (ADCK4 (human)) [%] | kinase still bound, per cent of control (CAMK1G (human)) [%] | kinase still bound, per cent of control (CDK15 (human)) [%] | kinase still bound, per cent of control (CDK8 (human)) [%] | kinase still bound, per cent of control (CDK9 (human)) [%] | kinase still bound, per cent of control (CHEK2 (human)) [%] | kinase still bound, per cent of control (CLK4 (human)) [%] | kinase still bound, per cent of control (DAPK3 (human)) [%] | kinase still bound, per cent of control (FGR (human)) [%] | kinase still bound, per cent of control (FLT3 (human)) | kinase still bound, per cent of control [1] [%] | kinase still bound, per cent of control (LCK (human)) [%] | kinase still bound, per cent of control (MAP2K4 (human)) [%] | kinase still bound, per cent of control (MAP4K3 (human)) [%] | kinase still bound, per cent of control (MAPK4 (human)) [%] | kinase still bound, per cent of control (MAPK7 (human)) [%] | kinase still bound, per cent of control (MKNK1 (human)) [%] | kinase still bound, per cent of control (MYLK (human)) [%] | kinase still bound, per cent of control (NEK5 (human)) [%] | kinase still bound, per cent of control (NTRK1 (human)) [%] | further results
1 | CCC(=O)N1CCN(c2ccc(-n3c(=O)ccc4cnc5ccc(-c6cnc7ccccc7c6)cc5c43)cc2C(F)(F)F)CC1 | 15 | 74 | 88 | 4.6 | 94 | 100 | 49 | 82 | 78 | 16% | 8.8 | 77 | 30 | 1.9 | 80 | 100 | 44 | 87 | 5.8 | 64 | kinase still bound, per cent of control (MAP2K1 (human)): 100%; kinase still bound, per cent of control (PDGFRA (human)): 63%; kinase still bound, per cent of control (PHKG2 (human)): 100%; kinase still bound, per cent of control (PIM2 (human)): 62%; kinase still bound, per cent of control (PIP5K1A (human)): 89%; kinase still bound, per cent of control (PKMYT1 (human)): 52%; kinase still bound, per cent of control (PLK1 (human)): 85%; kinase still bound, per cent of control (PRKD2 (human)): 100%; kinase still bound, per cent of control (PRKG1 (human)): 86%; kinase still bound, per cent of control (RET (human)): 44%; kinase still bound, per cent of control (SRMS (human)): 92%; kinase still bound, per cent of control (STK16 (human)): 18%; kinase still bound, per cent of control (STK32B (human)): 87%; kinase still bound, per cent of control (STK32C (human)): 100%; kinase still bound, per cent of control (TEK (human)): 19%; kinase still bound, per cent of control (TESK1 (human)): 58%; kinase still bound, per cent of control (TGFBR1 (human)): 70%; kinase still bound, per cent of control (TLK2 (human)): 100%; kinase still bound, per cent of control (TXK (human)): 54%
2 | Cc1ccc2nc(NCCN)c3ncc(C)n3c2c1 | 24 | 88 | 100 | 100 | 35 | 97 | 53 | 53 | 100 | 100% | 41 | 98 | 100 | 80 | 89 | 0.7 | 100 | 79 | 100 | 100 | kinase still bound, per cent of control (BMPR1B (human)): 71%; kinase still bound, per cent of control (FER (human)): 98%; kinase still bound, per cent of control (MAP2K1 (human)): 100%; kinase still bound, per cent of control (PHKG2 (human)): 79%; kinase still bound, per cent of control (PIM2 (human)): 100%; kinase still bound, per cent of control (PIP5K1A (human)): 92%; kinase still bound, per cent of control (PKMYT1 (human)): 84%; kinase still bound, per cent of control (PLK1 (human)): 100%; kinase still bound, per cent of control (PRKD2 (human)): 72%; kinase still bound, per cent of control (PRKG1 (human)): 100%; kinase still bound, per cent of control (RET (human)): 100%; kinase still bound, per cent of control (SRMS (human)): 90%; kinase still bound, per cent of control (STK16 (human)): 100%; kinase still bound, per cent of control (STK32B (human)): 100%; kinase still bound, per cent of control (STK32C (human)): 94%; kinase still bound, per cent of control (TEK (human)): 100%; kinase still bound, per cent of control (TESK1 (human)): 79%; kinase still bound, per cent of control (TGFBR1 (human)): 100%; kinase still bound, per cent of control (TLK2 (human)): 88%; kinase still bound, per cent of control (TXK (human)): 90%
3 | O=C(NOC[C@H](O)CO)c1ccc(F)c(F)c1Nc1ccc(I)cc1F | 100 | 100 | 78 | 100 | 76 | 86 | 89 | 100 | 95 | 82% and 80% | 78 | 88 | 83 | 87 | 77 | 88 | 100 | 96 | 78 | 100 | kinase still bound, per cent of control (BMPR1B (human)): 81%; kinase still bound, per cent of control (FER (human)): 100%; kinase still bound, per cent of control (PDGFRA (human)): 96%; kinase still bound, per cent of control (PHKG2 (human)): 93%; kinase still bound, per cent of control (PIM2 (human)): 75%; kinase still bound, per cent of control (PIP5K1A (human)): 91%; kinase still bound, per cent of control (PKMYT1 (human)): 80%; kinase still bound, per cent of control (PLK1 (human)): 72%; kinase still bound, per cent of control (PRKD2 (human)): 100%; kinase still bound, per cent of control (PRKG1 (human)): 100%; kinase still bound, per cent of control (RET (human)): 90%; kinase still bound, per cent of control (SRMS (human)): 95%; kinase still bound, per cent of control (STK16 (human)): 99%; kinase still bound, per cent of control (STK32C (human)): 100%; kinase still bound, per cent of control (TEK (human)): 100%; kinase still bound, per cent of control (TESK1 (human)): 98%; kinase still bound, per cent of control (TGFBR1 (human)): 100%; kinase still bound, per cent of control (TLK2 (human)): 98%; kinase still bound, per cent of control (TXK (human)): 100%
